Test results reported in patent US10272056B2, “Treatment for mitochondrial diseases” (The George Washington University a Congressionally …, priority 2015, dated 2019).
Where two headings read alike, the source gives them in different places.

Key:
[1] = system: MELAS fibroblasts; test: Mitochondrial mass, morphology and networking (MTG live cell confocal analysis); type: cell-based, human; settings: three-day exposure; NaBt 2.5 mM, TBN 1.5 mM, AN9 300 μM
Description: FIG. 17A-17C are images from microscopy and graphs showing that butyrates rescue the mitochondrial phenotype in MELAS fibroblasts. (A) Confocal analysis of healthy and MELAS fibroblasts treated as indicated and labeled with the MTG dye; scale bar=10 (B) Analysis of the mitochondrial mass; n=3 (60 cells per experiment; ^‡p<0.05, unpaired T-test *p<0.05, paired T-test). (C) Analysis of Δψm (^‡p<0.05, unpaired T-test; *p<0.05, paired T-test).
(§1) Butyrates rescue the mitochondrial mass, morphology, networking, membrane potential, and cellular ATP levels in MELAS fibroblasts. Skin fibroblasts from two MELAS patients and from a healthy subject as a control were used. Dose-dependent analyses of butyrates to determine their best concentrations for eliciting an optimal mitochondrial response without cellular toxicity was performed. Healthy and MELAS fibroblasts were treated with PBS, NaBt (2.5 mM), TBN (1.5 mM), or AN9 (300 μM) for three days before labeling with the MTG dye for live cell confocal analysis.
as §1, with “networking, and” for “networking,”, “potential” for “potential, and cellular ATP levels”, “butyrates was performed” for “butyrates”, “toxicity.” for “toxicity was performed.”

[2] = system: healthy and MELAS fibroblasts; test: Dose-dependent studies for optimal safe concentrations; type: cell-based, human; settings: three days of treatment
Description: Experimental approaches. Five distinct molecular tools were used to investigate mitochondrial biogenesis: 1) the mitochondrial-specific dyes, MitoTracker® Green (MTG) and MitoTracker® Red (MTR); 2) the mito-GFP or mito-dsRed vector to fluorescently label mitochondria; 3) antibodies against mtDNA, COXVα, or SOD2; 4) the fluorescent PicoGreen® dye labeling mtDNA; and 5) quantitative PCR to determine mtDNA copy number.
as §1

[3] = system: MELAS fibroblasts; test: Morphometric analysis of mitochondrial connectivity (Image J); type: cell-based, human; settings: Image J analysis of MTG-labeled fibroblasts
Method: FIG. 18 is a graph showing that butyrate and its derivatives rescue the mitochondrial dynamics and connectivity in MELAS fibroblasts.
as §1, with “networking, and” for “networking,”, “potential” for “potential, and cellular ATP levels”, “butyrates was performed” for “butyrates”, “toxicity.” for “toxicity was performed.”

[4] = cited from earlier work; for toxicity or side effects on oral administration: TBN 1.5 mM, AN9 300 μM concentrations
[5] = cited from earlier work
[6] = human, in vivo; cited from earlier work
[7] = system: MT-COI; test: Quantitative immunoblot of mitochondrial-encoded MT-COI; type: cell-based; settings: lowest dose of chloramphenicol
Description: (§2) FIG. 14A-14E are images from microscopy showing that pre-treatment of PC12-ND6 cells with NaBt prevents chloramphenicol-mediated decrease of mitochondrial mass. (A) Graph of PC12-ND6 cell death upon exposure to different concentrations of chloramphenicol (Cm). Percent of cell death±SEM (n=250 cells). (B) Quantitative immunoblot analysis of mitochondrial-encoded MT-CO1 protein (green) and nuclear-encoded SDH-A protein (red) in Cm-treated PC12-ND6 cells. (C) Graph of MT-CO1/SDH-A ratio normalized to untreated PC12-ND6 cells. Mean±SEM (n=3; compared to untreated cells *p=0.0052, **p=0.0048, and ***p=0.0034). (D) Confocal micrographs of untreated and Cm-treated PC12-ND6 cells transfected with the vector mito-GFP. Scale bar represents 5 μm. (E) Confocal micrographs of NaBt pre-treated PC12-ND6 cells transfected with the vector mito-GFP and exposed to Cm. Scale bar represents 5 μm.
(§3) The efficacy of chloramphenicol treatment was determined by simultaneously examining the expression levels of the nuclear-encoded succinate dehydrogenase (SDH-A) subunit of Complex II and the mitochondrial-encoded subunit I of Complex IV (MT-COI) using a quantitative immunoblot approach. […] The effect of chloramphenicol on mitochondrial mass by live-cell confocal microscopy using PC12-ND6 cells transfected with the vector mito-GFP was confirmed.

[8] = system: E17.5 hippocampal neurons; test: Neuronal stage 3 frequency with chloramphenicol and NaBt; type: cell-based; settings: no NaBt
Description: FIG. 16A-16I are images from microscopy and a graph showing that Pre-treatment of E17.5 hippocampal neurons with NaBt protects against chloramphenicol-induced loss of neuronal differentiation. (A-D) Confocal micrographs of E17.5 hippocampal neurons exposed to different concentrations of chloramphenicol at 2DIV and labeled with anti tubulin antibody (red) and nuclear counterstain DAPI (blue) at 3DIV. Scale bar represents 10 μm. (E-H) Confocal micrographs of E17.5 hippocampal neurons treated with NaBt (2 mM) at 1DIV prior to exposure to different concentrations of chloramphenicol at 2DIV and labeled with anti tubulin antibody (red) and nuclear counterstain DAPI (blue) at 3DIV. Scale bar represents 10 μm. (I) Graph of E17.5 β-III^+ hippocampal neurons at the neuronal stage 3. Mean±S.D. (n=250 cells; compared to untreated control *p=0.0001; compared to the corresponding non-NaBt treated sample **p=0.0001; compared to non-NaBt treated cells exposed to Cm at 30 μM‡p=0.007).
The consequences of chloramphenicol exposure on untreated or NaBt-treated E17.5 hippocampal neurons was examined. At 1DIV, dissociated E17.5 hippocampal neurons were switched to differentiation medium in the absence or presence of NaBt (2 mM) for 24 hours before being treated with increasing concentrations of chloramphenicol (0, 15, 30, and 60 μM) for 24 hours. At 3DIV, their phenotypic differentiation was examined by immunocytochemistry using an antibody against the pan-neuronal marker β-III tubulin and quantified the percent of neurons having reached the developmental stage 3 for each experimental condition. As expected, only half of untreated neurons reached stage 3 in the absence of NaBt, while more than 90% of NaBt-treated neurons achieved such degree of differentiation, thereby forming an elaborate neuritic network (FIGS. 16A, E, and I).

[9] = system: SDH-A; test: Quantitative immunoblot of nuclear-encoded SDH-A; type: cell-based; settings: chloramphenicol 15-60 μM
Description: as §2, §3

[10] = system: PC12-ND6 cells; test: Mitochondrial mass under chloramphenicol (mito-GFP live-cell confocal microscopy); type: cell-based; settings: chloramphenicol-treated
Description: as §2, §3

[11] = system: PC12-ND6 cells; test: NGF (100 ng/ml)-mediated neurite outgrowth after chloramphenicol; type: cell-based; settings: chloramphenicol lowest concentration two days, then NGF 100 ng/ml three days
Description: FIG. 15A-15C are images from microscopy and a graph showing that Pre-treatment of PC12-ND6 cells negates the inhibitory effect of chloramphenicol on NGF-mediated neuronal differentiation. (A) Confocal micrographs of untreated and Cm-treated PC12-ND6 cells transfected with the vector mito-GFP and exposed to NGF. Scale bar represents 20 μm. (B) Confocal micrographs of NaBt pre-treated PC12-ND6 cells transfected with the vector mito-GFP and exposed to chloramphenicol prior to NGF treatment. Scale bar represents 20 μm. (C) Graph of average total neurite length. Mean±SEM (n=50 cells; compared to untreated PC12-ND6 cells *p=0.0001; compared to non-NaBt-treated PC12-ND6 cells with corresponding Cm concentration **p=0.0001).
Based on the results that NaBt endows PC12-ND6 cells with increased mitochondrial mass through biogenesis, resulting in accelerated neuronal differentiation, it was examined whether exposure to NaBt for three days could confer protection to chloramphenicol-mediated inhibition of neuronal differentiation upon NGF signaling.

[12] = system: PC12-ND6 cells; test: Cell death upon chloramphenicol exposure; type: cell-based; settings: chloramphenicol 0, 15, 30, 60 μM, two days
Description: as §2, §3

[13] = system: PC12-ND6 cells; settings: dbcAMP alone, PC12 cell system; cited from earlier work
[14] = system: MELAS fibroblasts; test: Apoptosis induced by hydroxamate HDACis; type: cell-based, human
[15] = system: PC12-ND6 cells; settings: TSA 0.66 μM, control HDAC inhibitor; cited from earlier work

With `CCCC(=O)OCOC(=O)C(C)(C)C` [AN9, pivaloyloxymethyl butyrate] the “mitochondrial mass, morphology, and networking” value [1] was “restored normal mitochondrial mass, morphology, and networking”, the “optimal safe concentration for eliciting maximal mitochondrial biogenesis without cellular toxicity” value [2] was 300 µM and the connectivity among mitochondria [3] was “rescue the connectivity among mitochondria”. For the same molecule, the “toxicity or side effects on oral administration” value [4] was “without toxicity or side effects”, the toxicity ([4]; in vivo) was “low toxicity” and the “oral pharmacological concentrations relative to NaBt” value ([4]; orally administered) was 140 times lower than NaBt. For the same molecule, the cell membrane permeability [5] was “increased cell membrane permeability”.

In the case of `CCCC(=O)OCC(COC(=O)CCC)OC(=O)CCC` [TBN, tributyrin], the “mitochondrial mass, morphology, and networking” value [1] is reported as “restored normal mitochondrial mass, morphology, and networking”, the “optimal safe concentration for eliciting maximal mitochondrial biogenesis without cellular toxicity” value [2] is reported as 1500 µM and the connectivity among mitochondria [3] is reported as “rescue the connectivity among mitochondria”. For the same molecule, the “toxicity or side effects on oral administration” value [4] was “without toxicity or side effects” and the “concentration pharmacologically attainable via oral administration without toxicity or side effects” value ([4]; oral) was “up to 2 mM”.

In the case of `CCCC(CCC)C(=O)O` [Valproic acid], the effect on seizures [6] is given as “propensity to worsen seizures”.

In the case of `O=C(N[C@H](CO)[C@H](O)c1ccc([N+](=O)[O-])cc1)C(Cl)Cl` [chloramphenicol], the MT-COI expression [7] is reported as “abolished most of MT-COI expression”, the “percent of neurons at stage 3” value ([8]; chloramphenicol 15 μM) is reported as “did not alter the percent of neurons at stage 3” and the “decreased transition to stage 3” value ([8]; chloramphenicol 30 μM) is reported as 27%. The “decreased transition to stage 3” value ([8]; chloramphenicol 60 μM) was 54%, the SDH-A expression levels [9] was “none of the chloramphenicol concentrations altered” and the mitochondrial mass [10] was “concentration-dependent decrease of mitochondrial mass”. For the same molecule, the “reduction in total neurite length” value [11] was 43% and the cell death [12] was “negligible cell death”.

For `CCCC(=O)Nc1ncnc2c1ncn2[C@@H]1O[C@@H]2COP(=O)(O)O[C@H]2[C@H]1OC(=O)CCC` [dbcAMP], the neurite length [13] is listed as 15-20 μm.

In the case of `CC(/C=C/C(=O)NO)=C\[C@@H](C)C(=O)c1ccc(N(C)C)cc1` [trichostatin A], the apoptosis [14] is given as “induce apoptosis” and the cell death [15] is given as “mild cell death”.

For `O=C(CCCCCCC(=O)Nc1ccccc1)NO` [vorinostat], the apoptosis [14] was “induce apoptosis”.
